This passage reports relative adenylation activity results from publication PMC5061366, “Metagenomic Analysis of the Sponge Discodermia Reveals the Production of the Cyanobacterial Natural Product Kasumigamide by ‘Entotheonella’” (PLoS ONE, 2016).

What all share (settings): 1 mM substrate, 1 uM protein, 0.5 mM ATP, 10 mM MgCl2, 32 mM hydroxylamine, 1 mM DTT, pH 7.5, room temperature, 10 min
For one assay, the target named is T1, MakasA-A1 (Microcystis aeruginosa, UniProt A0A1L7NR41).
T1 construct: single adenylation domain A1 of MakasA; N-terminal His6 (pCold II), E. coli BLR(DE3)
T1 sequence (A0A1L7NR41 1-560 limits assumed): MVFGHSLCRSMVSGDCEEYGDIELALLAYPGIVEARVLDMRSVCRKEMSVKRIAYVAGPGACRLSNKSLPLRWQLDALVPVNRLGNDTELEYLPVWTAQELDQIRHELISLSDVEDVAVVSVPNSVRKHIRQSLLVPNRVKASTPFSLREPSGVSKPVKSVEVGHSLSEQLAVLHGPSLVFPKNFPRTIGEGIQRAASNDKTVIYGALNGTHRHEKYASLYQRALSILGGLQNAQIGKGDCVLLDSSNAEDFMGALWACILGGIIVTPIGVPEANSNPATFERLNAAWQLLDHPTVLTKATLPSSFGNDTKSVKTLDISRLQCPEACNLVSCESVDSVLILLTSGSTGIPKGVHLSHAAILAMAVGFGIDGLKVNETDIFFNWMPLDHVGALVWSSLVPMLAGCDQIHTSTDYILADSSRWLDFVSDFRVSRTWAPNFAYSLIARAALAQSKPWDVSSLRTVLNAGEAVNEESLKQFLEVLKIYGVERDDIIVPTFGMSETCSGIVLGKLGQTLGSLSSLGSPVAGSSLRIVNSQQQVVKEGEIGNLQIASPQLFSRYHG
Nature of the assay: malachite green phosphate assay of adenylation (hydroxylamine, pyrophosphatase). The class given is biochemical.

The target in another assay is T2, MakasC-A2 (Microcystis aeruginosa, UniProt A0A1L7NR40).
T2 construct: C-A2-PCP tridomain of MakasC (MakasC-CA2P); N-terminal His6 (pCold II), E. coli BLR(DE3)
Described as above. The class given is biochemical.

For a further assay, the target named is MakasC-A1 (Microcystis aeruginosa, UniProt A0A1L7NR40).
The target of a further assay is T3, MakasB-A1 (Microcystis aeruginosa, UniProt A0A1L7NR43).
T3 construct: C-A1-PCP tridomain of MakasB (MakasB-CA1P); N-terminal His6 (pCold II), E. coli BLR(DE3)
Put plainly: malachite green phosphate assay of adenylation (hydroxylamine, pyrophosphatase). The class given is biochemical.

Another assay has as its target T4, MakasB-A2 (Microcystis aeruginosa, UniProt A0A1L7NR43).
T4 construct: single adenylation domain A2 of MakasB; N-terminal His6-MBP fusion (NhisMBP-pET28b(+)), E. coli BLR(DE3)
The assay is described as above. The class given is biochemical.

As for `O=C(O)C(=O)Cc1ccccc1` [phenyl pyruvic acid], the relative adenylation activity entry on MakasA-A1 was “exhibited catalytic activities selective for PP, β-Ala, L-Trp, and L-Arg, respectively”.

On to `NC(C(=O)O)C(O)c1ccccc1` (racemic) [DL-threo-3-phenylserine], for which the relative adenylation activity result on MakasC-A2 is “MakasC-A2 showed higher selectivity to DL-threo-3-phenylserine (DL-threo-PS) than L-Phe”.

Turning to `N=C(N)NCCC[C@H](N)C(=O)O` [L-Arg], the relative adenylation activity entry at MakasC-A1 was “exhibited catalytic activities selective for PP, β-Ala, L-Trp, and L-Arg, respectively”.

Take `NCCC(=O)O` [β-Ala]: at MakasB-A1, the relative adenylation activity result is “exhibited catalytic activities selective for PP, β-Ala, L-Trp, and L-Arg, respectively”.

As to `N[C@@H](Cc1c[nH]c2ccccc12)C(=O)O` [L-Trp], the relative adenylation activity entry at MakasB-A2 is “exhibited catalytic activities selective for PP, β-Ala, L-Trp, and L-Arg, respectively”.
